Several values for one entry are separate records, joined by “and”; a condition that tells them apart may be missing. Identical values can stand only once. Activity calls are given as the source filed them. Rule for the calls: active = viability on the fitted dose curve at most 10% of control; inactive = the rest.
System: 817829-284-R-J1-PDC spheroids with HUVEC/MSC, viability
Assay: Anticancer human tumor 817829-284-R-J1-PDC patient-derived colon adenocarcinoma cell line growth inhibition [TAK]
Conditions: for viability, T/C: stronger effect = lower value
Text: Combinatorial screen of targeted agents with TAK-243 and ipatasertib in multi-cell type tumor spheroids
A high-throughput screen of multi-cell type tumor spheroids was designed to identify active combinations of targeted small molecules and TAK-243 or ipatasertib. Complex spheroids include a stromal component modeled by human endothelial cells (HUVEC) and fibroblasts modeled by human mesenchymal stem cells (MSCs). The concentration ranges selected for each drug and investigational agent were based upon clinically achievable concentrations if the clinical Cmax of the agent was known.
Compounds. The drugs and investigational agents: TAK-243 (785004), ipatasertib (767898), everolimus (733504), selumetinib (741078), bortezomib (756655), trametinib (758246), ixazomib (758254), vemurafenib (761431), dabrafenib (764134), sapanisertib (764658), alpelisib (765974), and copanlisib (816437), were obtained from the National Cancer Institute (NCI) Developmental Therapeutics Program Chemical Repository. The FDA-approved anticancer drug set is available from the NCI Developmental Therapeutics Program. […] The stock solutions were prepared in dimethyl sulfoxide (DMSO, Sigma-Aldrich, St. Louis, MO, cat. D2650) at 800-fold the tested concentration and stored at -70 degrees C prior to their use. All drugs and investigational agents were tested over a range starting from a high concentration at or near the clinical Cmax and decreasing in half-log increments. If the clinical Cmax for an agent had not been determined, the highest concentration tested was 10 microM.
NCI60 Cell Culture. NCI60 cell lines were obtained from the NCI Developmental Therapeutics Program Tumor Repository. For each lot of cells, the Repository performed Applied Biosystems AmpFLSTR Identifiler testing with PCR amplification to confirm consistency with the published Identifier STR profile for each cell line. Cells were kept in continuous culture for no more than 20 passages. The optimal seeding densities for each of the cell lines at each time point assessed were determined prior to performing the concentration response studies. Briefly, the NCI60 human tumor lines were grown as monolayers in RPMI 1640 medium supplemented with 10% FBS and 2 mmol/L L-glutamine.
An additional 2 lines were from the NCI60 cell line panel including melanomas, MALME-3M and SK-MEL-2. Pooled donor human umbilical vein endothelial cells (HUVEC, Lonza, cat. CC-2519) and human mesenchymal stem cells (hMSC, Lonza, cat. PT-2501) were purchased from Lonza (Walkersville, MD).
PDMR cell lines were grown in complete medium (DC medium): Dulbecco's modified Eagle's medium (DMEM)/F12 supplemented with 5% fetal bovine serum (FBS), 2 mM L-glutamine, 100 U/mL penicillin and 100 µg/ml streptomycin, 0.4 µg/ml hydrocortisone, 10 ng/ml epidermal growth factor (EGF) recombinant human protein, 24 µg/mL adenine, and 0.1 mg/mL primocin. During culture from frozen stock vials, PDMR cells were cultured in the same medium containing 10 µM Y-27632 (see Table 3). The PDCs were cultured in complete DMEM/F12 media without 10 microM Y-27632 dihydrochloride for at least two passages prior to the screen. The pooled donor HUVEC and hMSC were cultured in endothelial cell growth medium 2 (PromoCell, Heidelberg, Germany, cat. C-22011) and mesenchymal stem cell growth medium 2 (PromoCell, cat. C-28009), respectively. For all experiments, HUVEC and hMSC were used at passages </=5.
For the pre-screen, cell seeding densities were determined from a titration spanning the range from 5,000 to 313 cells per well. The mct-spheroids including 60% malignant cells, 25% HUVEC and 15% MSC dispensed as a mixture into U-bottom Ultra-Low Attachment 384-well plates (Corning, NY)
High-throughput Drug Combination Screening.
Prior to their inoculation into 384-well plates, malignant cells, HUVEC, and hMSC were removed from T flasks using TrypLE express (Thermo Fisher Scientific, cat. 12605036) and harvested by centrifugation for 5 min at 233 x g. […]

[1] = curve of first compound, second compound 0.3 µM
[2] = curve of first compound, second compound 0.949 µM
[3] = curve of first compound, second compound 3 µM
[4] = curve of first compound, second compound 9.49 µM
[5] = curve of first compound, second compound 30 µM
[6] = second compound 0.3 µM, first compound 0.000316 µM
[7] = second compound 0.3 µM, first compound 0.001 µM
[8] = second compound 0.3 µM, first compound 0.00316 µM
[9] = second compound 0.3 µM, first compound 0.01 µM
[10] = second compound 0.3 µM, first compound 0.0316 µM
[11] = second compound 0.3 µM, first compound 0.1 µM
[12] = second compound 0.949 µM, first compound 0.000316 µM
[13] = second compound 0.949 µM, first compound 0.001 µM
[14] = second compound 0.949 µM, first compound 0.00316 µM
[15] = second compound 0.949 µM, first compound 0.01 µM
[16] = second compound 0.949 µM, first compound 0.0316 µM
[17] = second compound 0.949 µM, first compound 0.1 µM
[18] = second compound 3 µM, first compound 0.000316 µM
[19] = second compound 3 µM, first compound 0.001 µM
[20] = second compound 3 µM, first compound 0.00316 µM
[21] = second compound 3 µM, first compound 0.01 µM
[22] = second compound 3 µM, first compound 0.0316 µM
[23] = second compound 3 µM, first compound 0.1 µM
[24] = second compound 9.49 µM, first compound 0.000316 µM
[25] = second compound 9.49 µM, first compound 0.001 µM
[26] = second compound 9.49 µM, first compound 0.00316 µM
[27] = second compound 9.49 µM, first compound 0.01 µM
[28] = second compound 9.49 µM, first compound 0.0316 µM
[29] = second compound 9.49 µM, first compound 0.1 µM
[30] = second compound 30 µM, first compound 0.000316 µM
[31] = second compound 30 µM, first compound 0.001 µM
[32] = second compound 30 µM, first compound 0.00316 µM
[33] = second compound 30 µM, first compound 0.01 µM
[34] = second compound 30 µM, first compound 0.0316 µM
[35] = second compound 30 µM, first compound 0.1 µM

For `COC1CC2CCC(C)C(O)(O2)C(=O)C(=O)N2CCCCC2C(=O)OC(C(C)CC2CCC(OCCO)C(OC)C2)CC(=O)C(C)C=C(C)C(O)C(OC)C(=O)C(C)CC(C)C=CC=CC=C1C` (configuration not stated) + CC(C)NCC(C(=O)N1CCN(c2ncnc3c2C(C)CC3O)CC1)c1ccc(Cl)cc1, the IC50 [1] was 14.5 nM, the IC50 [2] was 0.479 nM and the IC50 [3] was less than 0.316 nM. The IC50 [4] was less than 0.316 nM, the IC50 [5] was less than 0.316 nM and the viability, T/C [6] was 90.9%. It also gave a viability, T/C [7] of 76.7%, a viability, T/C [8] of 61.8% and a viability, T/C [9] of 49.9%. For the same compound, the viability, T/C [10] was 49.7%, the viability, T/C [11] was 40.8% and the viability, T/C [12] was 59%. The viability, T/C [13] was 33.4%, the viability, T/C [14] was 33.7% and the viability, T/C [15] was 31.7%. The viability, T/C [16] was 28.6%, the viability, T/C [17] was 28.9% and the viability, T/C [18] was 23.3%. The viability, T/C [19] was 19.9%, the viability, T/C [20] was 16.4% and the viability, T/C [21] was 16%. The viability, T/C [22] was 18.3%, the viability, T/C [23] was 13.7% and the viability, T/C [24] was 12.9%. For the same compound, the viability, T/C [25] was 12.5%, the viability, T/C [26] was 12.6% and the viability, T/C [27] was 12.7%. For the same compound, the viability, T/C [28] was 9.91%, the viability, T/C [29] was 12.8% and the viability, T/C [30] was 7.9%. It also gave a viability, T/C [31] of 7.4%, a viability, T/C [32] of 6.49% and a viability, T/C [33] of 6.32%. It also gave a viability, T/C [34] of 6.79% and a viability, T/C [35] of 6.34%.
With `CC(C)(C)c1nc(-c2cccc(NS(=O)(=O)c3c(F)cccc3F)c2F)c(-c2ccnc(N)n2)s1` the viability, T/C (compound 0.0316 µM) was 98.1% and 94%, the viability, T/C (compound 0.1 µM) was 87.5% and 82.2% and the viability, T/C (compound 0.316 µM) was 54.2% and 63.3%. For the same compound, the outcome (compound 1 µM) was “inactive”, the viability, T/C (compound 1 µM) was 31% and the viability, T/C (compound 3.16 µM) was 64.7% and 54.7%. The viability, T/C (compound 10 µM) was 46.4% and 50.4%.
In the case of `COc1c(OCCCN2CCOCC2)ccc2c3n(c(=NC(=O)c4cnc(N)nc4)nc12)CCN3`, the viability, T/C (compound 0.00316 µM) is reported as 104% and 105%, the viability, T/C (compound 0.01 µM) is reported as 90.7% and 96.1% and the viability, T/C (compound 0.0316 µM) is reported as 63.8% and 44.4%. For the same compound, the viability, T/C (compound 0.1 µM) was 18.7% and 13.9%, the viability, T/C (compound 0.316 µM) was 3.92% and 2.94% and the viability, T/C (compound 1 µM) was 2.85% and 3.44%. For the same compound, the IC50 (curve of compound) was 44 nM and 28.7 nM.
In the case of `COC1CC2CCC(C)C(O)(O2)C(=O)C(=O)N2CCCCC2C(=O)OC(C(C)CC2CCC(OCCO)C(OC)C2)CC(=O)C(C)C=C(C)C(O)C(OC)C(=O)C(C)CC(C)C=CC=CC=C1C` (configuration not stated), the viability, T/C (compound 0.000316 µM) is reported as 104% and 110%, the viability, T/C (compound 0.001 µM) is reported as 99.8% and 102% and the viability, T/C (compound 0.00316 µM) is reported as 94% and 99.6%. For the same compound, the viability, T/C (compound 0.01 µM) was 81% and 86.2%, the viability, T/C (compound 0.0316 µM) was 79.2% and 82.3% and the viability, T/C (compound 0.1 µM) was 63.9% and 75%. The IC50 (curve of compound) was greater than 100 nM.
For `CC(C)n1nc(-c2ccc3oc(N)nc3c2)c2c(N)ncnc21`, the viability, T/C (compound 0.000316 µM) was 101% and 104%, the viability, T/C (compound 0.001 µM) was 102% and 99% and the viability, T/C (compound 0.00316 µM) was 101% and 102%. The viability, T/C (compound 0.01 µM) was 93% and 92.9%, the viability, T/C (compound 0.0316 µM) was 56.8% and 61.2% and the viability, T/C (compound 0.1 µM) was 21.3% and 33.1%. For the same compound, the IC50 (curve of compound) was 39.4 nM and 50 nM.
With `Cc1nc(NC(=O)N2CCCC2C(N)=O)sc1-c1ccnc(C(C)(C)C(F)(F)F)c1` (configuration not stated) the viability, T/C (compound 0.0316 µM) was 96.8% and 102%, the viability, T/C (compound 0.1 µM) was 98.7% and 96.4% and the viability, T/C (compound 0.316 µM) was 94.8% and 94.7%. For the same compound, the viability, T/C (compound 1 µM) was 88.1% and 93%, the viability, T/C (compound 3.16 µM) was 79.6% and 80% and the viability, T/C (compound 10 µM) was 48.1% and 49.1%. For the same compound, the IC50 (curve of compound) was 9420 nM and 9840 nM.
For `CC(C)n1nc(-c2ccc3oc(N)nc3c2)c2c(N)ncnc21` + CC(C)NCC(C(=O)N1CCN(c2ncnc3c2C(C)CC3O)CC1)c1ccc(Cl)cc1, the IC50 [1] was 15 nM, the IC50 [2] was 1.51 nM and the IC50 [3] was less than 0.316 nM. The IC50 [4] was less than 0.316 nM, the IC50 [5] was less than 0.316 nM and the viability, T/C [6] was 95.8%. The viability, T/C [7] was 97.5%, the viability, T/C [8] was 81.4% and the viability, T/C [9] was 62.4%. The viability, T/C [10] was 29.9%, the viability, T/C [11] was 18% and the viability, T/C [12] was 62%. For the same compound, the viability, T/C [13] was 63.8%, the viability, T/C [14] was 26.7% and the viability, T/C [15] was 20.4%. For the same compound, the viability, T/C [16] was 14.1%, the viability, T/C [17] was 9.37% and the viability, T/C [18] was 17.9%. For the same compound, the viability, T/C [19] was 22.1%, the viability, T/C [20] was 14.9% and the viability, T/C [21] was 10.1%. For the same compound, the viability, T/C [22] was 9.06%, the viability, T/C [23] was 7.73% and the viability, T/C [24] was 9.8%. For the same compound, the viability, T/C [25] was 12.5%, the viability, T/C [26] was 7.29% and the viability, T/C [27] was 7.54%. For the same compound, the viability, T/C [28] was 4.98%, the viability, T/C [29] was 4.87% and the viability, T/C [30] was 6.54%. For the same compound, the viability, T/C [31] was 6.66%, the viability, T/C [32] was 5.92% and the viability, T/C [33] was 3.93%. It also gave a viability, T/C [34] of 3.59% and a viability, T/C [35] of 3.29%.
`CC(=O)Nc1cccc(-n2c(=O)n(C3CC3)c(=O)c3c(Nc4ccc(I)cc4F)n(C)c(=O)c(C)c32)c1` was tested, and the viability, T/C (compound 94.9 pM) was 104% and 103%, the viability, T/C (compound 0.0003 µM) was 93% and 94.2% and the viability, T/C (compound 0.000949 µM) was 85.1% and 82.9%. The viability, T/C (compound 0.003 µM) was 65.9% and 53.9%, the viability, T/C (compound 0.00949 µM) was 25.9% and 33.9% and the viability, T/C (compound 0.03 µM) was 10.8% and 11%. The IC50 (curve of compound) was 4.58 nM and 4.15 nM.

— PubChem BioAssay AID2060347 (Molecular Pharmacology Branch, DTP, NCI, 2025)
